Measured values taken from PMC12432127, “Assessing the potential of bacterial signal peptides for radiopharmaceutical applications” (Scientific Reports, 2025).
Where “and” joins values, the source holds several entries; their conditions need not be identical. Equal values may be shown once. Residues, ends and D or L forms follow the SMILES beside them. *: point of attachment. For = O=C*

Tests used:
FPR1 = target: T1, FPR1 (Homo sapiens, UniProt P21462); test: High-throughput calcium imaging (FLIPR), FPR1 transfected HEK293T cells; assay type: cell-based; settings: for Calicum signal (dF/F0): FPR1-HEK
T1 construct: expressed in transfected cells; host or cells: HEK293T (transient, jetPEI)
T1 sequence (P21462 1-350): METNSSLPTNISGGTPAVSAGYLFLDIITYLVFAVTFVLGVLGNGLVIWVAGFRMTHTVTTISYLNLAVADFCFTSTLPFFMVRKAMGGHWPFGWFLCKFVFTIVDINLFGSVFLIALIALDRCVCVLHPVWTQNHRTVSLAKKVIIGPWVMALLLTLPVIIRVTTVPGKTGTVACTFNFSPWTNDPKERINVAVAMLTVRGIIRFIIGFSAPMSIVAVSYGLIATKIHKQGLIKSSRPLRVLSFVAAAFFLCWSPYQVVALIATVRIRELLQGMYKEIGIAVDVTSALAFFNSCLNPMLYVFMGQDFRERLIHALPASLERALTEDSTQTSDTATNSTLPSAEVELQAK
Protocol: (§1) Cell transfection was performed approximately 24 h after seeding the cells, when they reached about 70% confluence. Transfection was carried out using jetPEI™ (Polyplus) according to the following protocol: 0.25 µg DNA was diluted in 10 µL NaCl (150 mM). 0.5 µL of jetPEI™ solution in 10 µL NaCl was mixed with the DNA solution and incubated at RT for 15–30 min. After incubation, 20 µL of the jetPEI™/DNA mixture was added dropwise to the cells, which were then placed in the cell culture incubator at 37 °C and 5% CO2. After 18 to 24 h of transfection, the medium was replaced, and 100 µL per well was added, then placed back in the incubator.
(§2) Automated high-throughput Ca^2+ measurements using a fluorescence imaging plate reader (FLIPR, Molecular Devices) were performed. Briefly, […] were seeded in 96-well plates (~ 50,000 cells/well) one day before the experiments and incubated at 37 °C. HEK293T cells were co-transfected with the receptor or mock and the G protein Gα16 for 48 h. On the day of the experiments, the medium was removed, and the cells were loaded with a loading solution consisting of 2 µM Calbryte dye in C1 buffer (Calbryte 520AM, AAT Bioquest 20651) 50 µL per well, for at least 2 h at RT in the dark. After 2 h of loading with the fluorescent dye, the solution was removed, the plate was washed three times using an ELX50 washer (BioTek), and the intracellular release of calcium was measured using FLIPR. A Ca^2+ response was defined as an increase in the excitation ratio (340 nm/380 nm) that was at least four times higher than the mean baseline noise after bath application.
(§3) The results are expressed as the means ± standard deviations of the number of the indicated determinations. Calcium measurement experiments were routinely performed as triplicates and averaged over at least three independent transfections. Response amplitudes (F/F0) were calculated by dividing maximal fluorescence change after ligand application by baseline fluorescence. Maximal amplitudes were set to 100%, and curves were calculated with Graph Pad Prism Version 10.1 (GraphPad Software, Boston, MA, USA). S.D. values were calculated as averages from independently obtained EC50 values using the STDEV. Data derived from experiments were analyzed by two-way ANOVA. P < 0.05 was accepted as significant.

human FPR2 = target: T2, human FPR2 (Homo sapiens, UniProt P25090); test: High-throughput calcium imaging (FLIPR), FPR2 transfected HEK293T cells; assay type: cell-based; settings: read-out: EC50 Ca2+ mobilization
T2 construct: expressed in transfected cells; host or cells: HEK293T (transient, jetPEI)
T2 sequence (P25090 1-351): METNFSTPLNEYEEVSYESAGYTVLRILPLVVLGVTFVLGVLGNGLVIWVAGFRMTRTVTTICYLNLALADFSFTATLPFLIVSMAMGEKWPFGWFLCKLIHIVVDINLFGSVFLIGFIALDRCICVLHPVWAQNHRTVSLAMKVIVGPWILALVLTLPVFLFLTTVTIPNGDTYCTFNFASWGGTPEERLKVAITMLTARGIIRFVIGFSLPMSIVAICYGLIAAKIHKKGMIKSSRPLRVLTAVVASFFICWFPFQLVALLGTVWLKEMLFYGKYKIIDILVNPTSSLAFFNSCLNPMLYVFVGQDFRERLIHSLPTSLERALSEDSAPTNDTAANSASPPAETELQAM
Protocol: as §1
(§4) Automated high-throughput Ca^2+ measurements using a fluorescence imaging plate reader (FLIPR, Molecular Devices) were performed. […] After 2 h of loading with the fluorescent dye, the solution was removed, the plate was washed three times using an ELX50 washer (BioTek), and the intracellular release of calcium was measured using FLIPR. […]
(§5) The results are expressed as the means ± standard deviations of the number of the indicated determinations. […] Response amplitudes (F/F0) were calculated by dividing maximal fluorescence change after ligand application by baseline fluorescence. Maximal amplitudes were set to 100%, and curves were calculated with Graph Pad Prism Version 10.1 (GraphPad Software, Boston, MA, USA). […]

U87-MG cells = test: Calcium imaging (FLIPR) in U87-MG cells; assay type: cell-based, human; settings: for Calicum signal (dF/F0): U87 cells
Protocol: as §2, §3

human FPR3 = target: T3, human FPR3 (Homo sapiens, UniProt P25089); test: High-throughput calcium imaging (FLIPR), FPR3 transfected HEK293T cells; assay type: cell-based; settings: up to 10 µM
T3 construct: expressed in transfected cells; host or cells: HEK293T (transient, jetPEI)
T3 sequence (P25089 1-353): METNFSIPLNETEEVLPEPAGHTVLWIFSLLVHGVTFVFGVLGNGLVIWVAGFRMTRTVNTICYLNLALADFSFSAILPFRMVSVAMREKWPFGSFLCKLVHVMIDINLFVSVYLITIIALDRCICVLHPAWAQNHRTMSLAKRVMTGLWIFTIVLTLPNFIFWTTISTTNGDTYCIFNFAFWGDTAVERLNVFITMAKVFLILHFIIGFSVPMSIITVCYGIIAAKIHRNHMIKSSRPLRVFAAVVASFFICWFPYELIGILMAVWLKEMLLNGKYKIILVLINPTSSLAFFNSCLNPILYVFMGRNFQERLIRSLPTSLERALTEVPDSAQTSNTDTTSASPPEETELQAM
Protocol: as §1, §4, §5

[1] = Log Concentration (M) -6,5, single replicate values
[2] = Log Concentration (M) -6, single replicate values
[3] = Log Concentration (M) -7,5, single replicate values
[4] = Log Concentration (M) -7, single replicate values
[5] = Log Concentration (M) -8,5, single replicate values
[6] = Log Concentration (M) -8, single replicate values
[7] = Log Concentration (M) -9, single replicate values

Compound: CC[C@H](C)[C@H](NC(=O)[C@H](CCCCN)NC(=O)[C@@H](NC(=O)[C@@H]1CCCN1C(=O)[C@@H](NC(=O)[C@H](CCSC)NC=O)C(C)C)[C@@H](C)CC)C(=O)O [f-MVPIKI] (For-MVPIKI-OH; C-terminus assumed)
- Calicum signal (dF/F0) (FPR1; [1]): 0,85 (2×) and 0,92
- Calicum signal (dF/F0) (FPR1; [2]): 0,75 and 0,94 and 0,85
- Calicum signal (dF/F0) (FPR1; [3]): 0,71 and 0,77 and 0,68
- Calicum signal (dF/F0) (FPR1; [4]): 0,57 and 0,86 and 0,73
- Calicum signal (dF/F0) (FPR1; [5]): 0,27 and 0,32 and 0,34
- Calicum signal (dF/F0) (FPR1; [6]): 0,65 and 0,63 and 0,6
- Calicum signal (dF/F0) (FPR1; [7]): 0,18 and 0,24 and 0,22
- EC50 (FPR1; FPR1 transfected HEK293T cells, peak calcium response, read-out: EC50 Ca2+ mobilization): 4.3 ± 2.4 nM
- preference for FPR1 over FPR2 (calcium EC50) (FPR1; FPR1 vs FPR2): approximately 14 fold
- EC50 (human FPR2): 60 ± 0.76 nM
- EC50 (U87-MG cells; U87-MG cells, read-out: EC50 Ca2+ flux): 5.3 ± 2.4 nM
- Calicum signal (dF/F0) (U87-MG cells; [1]): 1,19 (2×) and 0,99 and 1,7 and 1,4
- Calicum signal (dF/F0) (U87-MG cells; [2]): 1,22 and 1,13 and 1,2 and 1,14 and 1,1
- Calicum signal (dF/F0) (U87-MG cells; [3]): 1 and 0,95 and 0,98 and 1,12 and 1,1
- Calicum signal (dF/F0) (U87-MG cells; [4]): 1 and 1,1 and 1,2 and 1,18 and 0,99
- Calicum signal (dF/F0) (U87-MG cells; [5]): 0,66 (2×) and 0,69 and 0,6 and 0,47
- Calicum signal (dF/F0) (U87-MG cells; [6]): 0,9 and 0,98 and 0,94 and 1,3 and 1,07
- Calicum signal (dF/F0) (U87-MG cells; Log Concentration (M) -9,5, single replicate values): 0,01 and 0,08 and 0,09 and 0,1 and 0,3
- Calicum signal (dF/F0) (U87-MG cells; [7]): 0,14 and 0,23 and 0,2 and 0,12 and 0,38
- activation of FPR3 (calcium) (human FPR3): did not activate FPR3 at any tested concentration
